# Measured values as given in patent publication US12037344B2, “NLRP3 modulators” (INNATE TUMOR IMMUNITY, INC., priority 2018, dated 2024).
# Legend:
# [1] = target: T1, TLR7 (Homo sapiens, UniProt Q9NYK1); experiment: In vitro human TLR7 binding reporter assay (HEK-Blue, NF-kB/AP1-inducible SEAP); format: cell-based; conditions: activity range class, read-out: TLR7 Agonist EC50
# T1 construct: human HEK-Blue cells co-expressing a TLR7 or TLR8 gene
# T1 sequence (Q9NYK1 27-1049): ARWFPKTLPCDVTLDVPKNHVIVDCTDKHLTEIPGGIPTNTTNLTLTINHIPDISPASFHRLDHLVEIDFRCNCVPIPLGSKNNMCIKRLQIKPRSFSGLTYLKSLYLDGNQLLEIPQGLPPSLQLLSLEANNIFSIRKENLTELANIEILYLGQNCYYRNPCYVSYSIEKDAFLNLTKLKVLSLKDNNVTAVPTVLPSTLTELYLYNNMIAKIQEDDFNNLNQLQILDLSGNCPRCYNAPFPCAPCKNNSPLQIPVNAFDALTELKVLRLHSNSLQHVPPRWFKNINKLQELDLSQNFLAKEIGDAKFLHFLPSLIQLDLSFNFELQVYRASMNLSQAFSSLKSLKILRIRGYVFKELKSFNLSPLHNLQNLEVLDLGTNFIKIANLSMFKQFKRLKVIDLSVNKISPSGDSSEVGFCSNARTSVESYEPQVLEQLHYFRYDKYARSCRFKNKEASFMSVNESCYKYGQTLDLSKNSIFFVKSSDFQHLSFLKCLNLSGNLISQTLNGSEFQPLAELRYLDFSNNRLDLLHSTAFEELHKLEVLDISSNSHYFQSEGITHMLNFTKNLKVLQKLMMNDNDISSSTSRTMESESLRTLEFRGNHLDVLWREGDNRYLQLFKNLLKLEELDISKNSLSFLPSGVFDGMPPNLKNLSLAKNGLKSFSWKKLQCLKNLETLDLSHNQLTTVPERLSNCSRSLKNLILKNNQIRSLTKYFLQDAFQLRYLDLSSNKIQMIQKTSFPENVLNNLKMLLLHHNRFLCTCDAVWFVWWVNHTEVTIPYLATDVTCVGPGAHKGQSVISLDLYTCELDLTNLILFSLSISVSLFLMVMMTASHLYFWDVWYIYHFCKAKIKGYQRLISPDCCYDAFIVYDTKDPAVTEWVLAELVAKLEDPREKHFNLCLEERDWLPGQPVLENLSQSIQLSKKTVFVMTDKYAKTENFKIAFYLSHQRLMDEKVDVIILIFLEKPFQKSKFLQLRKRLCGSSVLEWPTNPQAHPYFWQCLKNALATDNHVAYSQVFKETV
# Method in brief: (§1)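 HEK-Blue cells expressing human TLR7 or TLR8 with NF-kB/AP1-inducible SEAP reporter, plated 24 h, then compound-treated 18 h at 37° C, 5% CO2. EC50 normalized to 100% Ymax set by 50 μM reference standard.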
# [2] = target: T2, TLR8 (Homo sapiens, UniProt Q9NR97); experiment: In vitro human TLR8 binding reporter assay (HEK-Blue, NF-kB/AP1-inducible SEAP); format: cell-based; conditions: activity range class, read-out: TLR8 Agonist EC50
# T2 construct: human HEK-Blue cells co-expressing a TLR7 or TLR8 gene
# T2 sequence (Q9NR97 27-1041): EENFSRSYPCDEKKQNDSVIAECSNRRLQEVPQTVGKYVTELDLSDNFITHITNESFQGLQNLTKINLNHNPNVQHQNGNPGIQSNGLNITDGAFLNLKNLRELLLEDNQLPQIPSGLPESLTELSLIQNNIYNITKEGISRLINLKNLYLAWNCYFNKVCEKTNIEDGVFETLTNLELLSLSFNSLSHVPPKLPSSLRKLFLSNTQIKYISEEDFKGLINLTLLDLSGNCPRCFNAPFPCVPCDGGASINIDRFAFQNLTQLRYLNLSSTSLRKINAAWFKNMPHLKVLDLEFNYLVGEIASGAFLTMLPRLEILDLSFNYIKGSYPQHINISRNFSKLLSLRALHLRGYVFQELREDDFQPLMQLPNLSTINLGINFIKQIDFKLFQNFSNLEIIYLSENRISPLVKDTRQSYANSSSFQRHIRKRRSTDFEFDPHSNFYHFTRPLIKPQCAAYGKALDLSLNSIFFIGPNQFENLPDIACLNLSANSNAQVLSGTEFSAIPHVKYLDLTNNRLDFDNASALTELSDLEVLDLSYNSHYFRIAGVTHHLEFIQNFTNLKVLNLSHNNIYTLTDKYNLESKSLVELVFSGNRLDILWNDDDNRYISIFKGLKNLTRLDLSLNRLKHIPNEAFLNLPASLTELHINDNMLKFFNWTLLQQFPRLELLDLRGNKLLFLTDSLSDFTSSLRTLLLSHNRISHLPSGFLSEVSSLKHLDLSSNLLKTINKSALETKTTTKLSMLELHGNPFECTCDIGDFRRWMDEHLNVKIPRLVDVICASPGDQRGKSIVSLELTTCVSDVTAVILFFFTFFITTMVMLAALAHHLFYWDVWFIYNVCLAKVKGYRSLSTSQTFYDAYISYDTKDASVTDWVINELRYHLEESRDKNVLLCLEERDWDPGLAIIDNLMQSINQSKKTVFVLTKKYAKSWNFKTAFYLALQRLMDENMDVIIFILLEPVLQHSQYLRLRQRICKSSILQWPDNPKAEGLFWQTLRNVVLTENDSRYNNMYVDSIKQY
# Method in brief: as §1
# [3] = test system: THP-1 cells; experiment: Measurement of IL-1β production, hTRF protocol (second alternative procedure), THP-1 cells; format: cell-based, human; conditions: Homo sapiens, THP-1, IL-1β production, human; read-out: NLRP3 hILIB EC50
# Method in brief: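 THP-1 cells differentiated overnight with 50 ng/ml PMA, then plated at 50,000 cells/well in RPMI with 2% FBS onto serial compound dilutions (top final concentration 10 μM) for 2 hours at 37° C. Supernatant IL-1β measured by hTRF (antibodies at 1:40, overnight at 4° C), read at 665/615 nm against a standard curve.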
EC50 [1] [µM],EC50 [2] [µM],EC50 [3] [µM],SMILES
> 100,> 100,0.31,Nc1nc2cc(-c3cc[nH]n3)ccc2c2nn(C[C@H]3CCCO3)cc12 [Example 329]
> 100,> 100,0.21,C[C@@H](CO)Cn1cc2c(N)nc3cc(-c4cc[nH]n4)ccc3c2n1 [Example 332]
> 100,> 100,0.61,CC1(O)CCCC1n1cc2c(N)nc3cc(-c4cc[nH]n4)ccc3c2n1 (stereo not drawn) [Example 343]
> 100,> 100,0.62,Nc1nc2cc(-c3cc[nH]n3)ccc2c2nn(CCC(F)(F)F)cc12 [Example 348]
> 100,> 100,0.08,Nc1nc2cc(-c3cc[nH]n3)ccc2c2nn(CCOC(F)(F)F)cc12 [Example 352]
> 100,> 100,0.61,Nc1nc2cc(-c3cc[nH]n3)ccc2c2nn(CC3(CO)CC3)cc12 [Example 353]
> 100,> 100,0.83,CCC(CO)Cn1cc2c(N)nc3cc(-c4cc[nH]n4)ccc3c2n1 (stereo not drawn) [Example 356]
> 100,> 100,0.19,Nc1nc2cc(-c3cc[nH]n3)ccc2c2nn(Cc3cc[nH]n3)cc12 [Example 357]
> 100,> 100,0.11,Nc1nc2cc(-c3cc[nH]n3)ccc2c2nn(Cc3cccnn3)cc12 [Example 360]
> 100,> 100,0.19,Nc1nc2cc(-c3cc[nH]n3)ccc2c2nn(CCc3c[nH]cn3)cc12 [Example 361]
> 100,> 100,0.07,Nc1nc2cc(-c3cc[nH]n3)ccc2c2nn(Cc3cscn3)cc12 [Example 362]
> 100,> 100,1.84,Nc1nc2cc(-c3cc[nH]n3)ccc2c2nn(C[C@@H]3CC(F)(F)CN3)cc12 [Example 363]
> 100,> 100,1.88,Nc1nc2cc(-c3cc[nH]n3)ccc2c2nn(C[C@@H](O)CO)cc12 [Example 365]
> 100,> 100,0.19,C[C@H](O)Cn1cc2c(N)nc3cc(-c4cc[nH]n4)ccc3c2n1 [Example 369]
> 100,> 100,0.65,CC(C)C(O)Cn1cc2c(N)nc3cc(-c4cc[nH]n4)ccc3c2n1 (stereo not drawn) [Example 374]
> 100,> 100,4.12,CC(C)(C)OCC(O)Cn1cc2c(N)nc3cc(-c4cc[nH]n4)ccc3c2n1 (stereo not drawn) [Example 375]
> 100,> 100,0.77,N#CC[C@H](O)Cn1cc2c(N)nc3cc(-c4cc[nH]n4)ccc3c2n1 [Example 380]

# Further lines, the compound ahead of its results:
SMILES,EC50 [1] [µM],EC50 [2] [µM],EC50 [3] [µM]
Nc1nc2cc(-c3cc[nH]n3)ccc2c2nn(C[C@@H]3CCCO3)cc12 [Example 330],> 100,> 100,0.17
COC(C)Cn1cc2c(N)nc3cc(-c4cc[nH]n4)ccc3c2n1 (stereo not drawn) [Example 331],> 100,> 100,0.08
Nc1nc2cc(-c3cc[nH]n3)ccc2c2nn(CCOCC(F)(F)F)cc12 [Example 333],> 100,> 100,0.24
CCn1cc2c(N)nc3cc(-c4cc[nH]n4)ccc3c2n1 [Example 334],> 100,> 100,0.11
Nc1nc2cc(-c3cc[nH]n3)ccc2c2nn(CC3CC(F)(F)C3)cc12 [Example 335],> 100,> 100,0.39
COCC(C)n1cc2c(N)nc3cc(-c4cc[nH]n4)ccc3c2n1 (stereo not drawn) [Example 336],> 100,> 100,0.47
Nc1nc2cc(-c3cc[nH]n3)ccc2c2nn(C3CCC(O)C3)cc12 (stereo not drawn) [Example 339],> 100,> 100,0.21
Nc1nc2cc(-c3cc[nH]n3)ccc2c2nn(CCOC(F)F)cc12 [Example 349],> 100,> 100,0.35
Nc1nc2cc(-c3cc[nH]n3)ccc2c2nn(CCCOC(F)(F)F)cc12 [Example 350],> 100,> 100,0.35
Nc1nc2cc(-c3cc[nH]n3)ccc2c2nn(CCCCO)cc12 [Example 351],> 100,> 100,0.64
Nc1nc2cc(-c3cc[nH]n3)ccc2c2nn(CCC(F)F)cc12 [Example 354],> 100,> 100,0.3
Cc1nc(Cn2cc3c(N)nc4cc(-c5cc[nH]n5)ccc4c3n2)no1 [Example 355],> 100,> 100,2.57
Nc1nc2cc(-c3cc[nH]n3)ccc2c2nn(Cc3cn[nH]c3)cc12 [Example 358],> 100,> 100,0.18
Nc1nc2cc(-c3cc[nH]n3)ccc2c2c1cnn2Cc1cn[nH]c1 [Example 359],> 100,> 100,1.45
Nc1nc2cc(-c3cc[nH]n3)ccc2c2nn(C[C@H](O)CO)cc12 [Example 364],> 100,> 100,1.47
CCC(O)Cn1cc2c(N)nc3cc(-c4cc[nH]n4)ccc3c2n1 (stereo not drawn) [Example 366],> 100,> 100,0.42
CC[C@H](O)Cn1cc2c(N)nc3cc(-c4cc[nH]n4)ccc3c2n1 [Example 367],> 100,> 100,0.23
CC[C@@H](O)Cn1cc2c(N)nc3cc(-c4cc[nH]n4)ccc3c2n1 [Example 368],> 100,> 100,0.52
C[C@@H](O)Cn1cc2c(N)nc3cc(-c4cc[nH]n4)ccc3c2n1 [Example 370],> 100,> 100,0.38
CC(C)OCC(O)Cn1cc2c(N)nc3cc(-c4cc[nH]n4)ccc3c2n1 (stereo not drawn) [Example 371],> 100,> 100,1.94
COC[C@H](O)Cn1cc2c(N)nc3cc(-c4cc[nH]n4)ccc3c2n1 [Example 372],> 100,> 100,0.88
COC[C@@H](O)Cn1cc2c(N)nc3cc(-c4cc[nH]n4)ccc3c2n1 [Example 373],> 100,> 100,1.25
